Source: patent US8741834B2, “Dipeptoid prodrugs and the use thereof” (Bayer Intellectual Property GmbH, priority 2008, dated 2014)
Structures can show the parent of a compound that is named as a salt.

Assays:
[1] = Determination of the solubility in 5% strength aqueous dextrose solution; format: physicochemical; conditions: saline or isotonic, thermodynamic from solid, room temperature
Procedure: The test substance is suspended in 5% strength aqueous dextrose solution. This suspension is shaken at room temperature for 24 h. After ultracentrifugation at 224 000 g for 30 min, the supernatant is diluted with DMSO and analysed by HPLC. A two-point calibration plot of the test compound in DMSO is used for quantification.
Agilent 1100 with DAD (G1315A), quat. Pump (G1311A), autosampler CTC HTS PAL, degasser (G1322A) and column thermostat (G1316A); column: Phenomenex Gemini C18, 5 μm, 50 mm×2 mm; temperature: 40° C.; eluent A: water/phosphoric acid pH 2, eluent B: acetonitrile; flow rate: 0.7 ml/min; gradient: 0-0.5 min 85% A, 15% B; ramp 0.5-3 min 10% A, 90% B; 3-3.5 min 10% A, 90% B; ramp 3.5-4 min 85% A, 15% B; 4-5 min 85% A, 15% B.
Agilent 1100 with DAD (G1315A), quat. pump (G1311A), autosampler CTC HTS PAL, degasser (G1322A) and column thermostat (G1316A); column: VDSoptilab Kromasil 100 C18, 3.5 μm, 60 mm×2.1 mm; temperature: 30° C.; eluent A: water+5 ml of perchloric acid/liter, eluent B: acetonitrile; flow rate: 0.75 ml/min; gradient: 0-0.5 min 98% A, 2% B; ramp 0.5-4.5 min 10% A, 90% B; 4.5-6 min 10% A, 90% B; ramp 6.5-6.7 min 98% A, 2% B; 6.7-7.5 min 98% A, 2% B.

[2] = Stability in buffer at various pH values; format: physicochemical
Procedure: 0.3 mg of the test substance is weighed into a 2 ml HPLC vial and 0.5 ml of acetonitrile or acetonitrile/DMSO (9:1) is added. The substance is dissolved by putting the sample vessel in an ultrasonic bath for about 10 seconds. Then 0.5 ml of the respective buffer solution is added, and the sample is again treated in the ultrasonic bath.
pH 2: 0.03 mol of citric acid, 0.061 mol of sodium chloride and 0.0082 mol of hydrochoric acid ad 1 liter of water;
pH 4: 1 liter of Millipore water is adjusted to pH 4.0 with 1 N hydrochloric acid;
pH 5: 0.096 mol of citric acid and 0.2 mol of sodium hydroxide ad 1 liter of water;
pH 6: 0.06 mol of citric acid and 0.16 mol of sodium hydroxide ad 1 liter of water;
pH 7.4: 90.0 g of sodium chloride, 13.61 g of potassium dihydrogen phosphate and 83.35 g of 1 N sodium hydroxide solution are made up to 1 liter with water; this solution is then further diluted 1:10 with Millipore water.
pH 8: 0.013 mol of borax and 0.021 mol of hydrochloric acid ad 1 liter of water.
5 μl portions of the test solution are analyzed by HPLC for their content of unchanged test substance, and of active substance (A) formed, every hour over a period of 24 hours at 37° C. The percentage areas of the appropriate peaks are used for quantification.
The ratios of the peak areas (F) at the respective time points in relation to the peak areas at the starting time are shown in Table 2 for representative exemplary embodiments: […]

[3] = Oral pharmacokinetics in Wistar rats; format: in vivo; conditions: after oral administration
Procedure: On the day before administration of the substance, a catheter for obtaining blood is implanted in the jugular vein of the experimental animals (male Wistar rats, body weight 200-250 g) under Isofluran® anesthesia.
On the day of the experiment, a defined dose of the test substance is administered as solution into the stomach by gavage. Blood samples (8-12 time points) are taken through the catheter sequentially over the course of 24 h after administration of the substance. Plasma is obtained by centrifuging the samples in heparinized tubes. Acetonitrile is added to a defined plasma volume per time point to precipitate proteins. After centrifugation, test substance and, where appropriate, known cleavage products of the test substance in the supernatant are determined quantitatively using a suitable LC/MS-MS method.
The measured plasma concentrations are used to calculate pharmacokinetic parameters of the test substance and of the active ingredient compound (A) liberated therefrom, such as AUC, Cmax, T1/2 (half-life).

Structure (SMILES): C[C@H](NC(=O)[C@@H](N)CCCCN)C(=O)OC[C@H](COc1ccc(-c2c(C#N)c(N)nc(SCc3coc(-c4ccc(Cl)cc4)n3)c2C#N)cc1)OC(=O)[C@H](C)NC(=O)[C@@H](N)CCCCN [Example 35, (2S)-3-{4-[2-Amino-6-({[2-(4-chlorophenyl)-1,3-oxazol-4-yl]methyl}sulfanyl)-3,5-dicyanopyridin-4-yl]phenoxy}propane-1,2-diyl(2S,2′S)-bis(2-{[(2S)-2,6-diaminohexanoyl)amino}propanoate)tetrahydrochloride]
- solubility thermodynamic at 24 h [1]: 610 µg/mL
- % test substance after 4 h [F(t = 4 h) × 100/F(t = 0 h)] ([2]; pH 4, 37° C.): 98%
- % test substance after 24 h [F(t = 24 h) × 100/F(t = 0 h)] ([2]; pH 4, 37° C.): 94%
- % test substance after 4 h [F(t = 4 h) × 100/F(t = 0 h)] ([2]; pH 7.4, 37° C.): 2%
- % test substance after 24 h [F(t = 24 h) × 100/F(t = 0 h)] ([2]; pH 7.4, 37° C.): 0%

Structure (SMILES): C[C@H](NC(=O)[C@@H]1CCCN1)C(=O)OC[C@H](COc1ccc(-c2c(C#N)c(N)nc(SCc3coc(-c4ccc(Cl)cc4)n3)c2C#N)cc1)OC(=O)[C@H](C)NC(=O)[C@@H]1CCCN1 [Example 8, (2S)-3-{4-[2-Amino-6-({[2-(4-chlorophenyl)-1,3-oxazol-4-yl]methyl}sulfanyl)-3,5-dicyanopyridin-4-yl]phenoxy}propane-1,2-diyl (2S,2′S)-bis(2-{[(2S)-pyrrolidin-2-ylcarbonyl]amino}propanoate)bis(trifluoroacetic acid) salt]
- detectability of the test substance in plasma [3]: no longer detectable in plasma even at the first measurement point
- % test substance after 4 h [F(t = 4 h) × 100/F(t = 0 h)] ([2]; pH 4, 37° C.): 100%
- % test substance after 24 h [F(t = 24 h) × 100/F(t = 0 h)] ([2]; pH 4, 37° C.): 100%
- % test substance after 4 h [F(t = 4 h) × 100/F(t = 0 h)] ([2]; pH 7.4, 37° C.): 82%
- % test substance after 24 h [F(t = 24 h) × 100/F(t = 0 h)] ([2]; pH 7.4, 37° C.): 34%

Structure (SMILES): C[C@H](NC(=O)CN)C(=O)OC[C@H](COc1ccc(-c2c(C#N)c(N)nc(SCc3coc(-c4ccc(Cl)cc4)n3)c2C#N)cc1)OC(=O)[C@H](C)NC(=O)CN [Example 7, (2S)-3-{4-[2-Amino-6-({[2-(4-chlorophenyl)-1,3-oxazol-4-yl]methyl}sulfanyl)-3,5-dicyanopyridin-4-yl]phenoxy}propane-1,2-diyl (2S,2′S)-bis{2-[(aminoacetyl)amino]propanoate}dihydrochloride]
- detectability of the test substance in plasma [3]: no longer detectable in plasma even at the first measurement point
- % test substance after 4 h [F(t = 4 h) × 100/F(t = 0 h)] ([2]; pH 4, 37° C.): 100%
- % test substance after 24 h [F(t = 24 h) × 100/F(t = 0 h)] ([2]; pH 4, 37° C.): 100%
- % test substance after 4 h [F(t = 4 h) × 100/F(t = 0 h)] ([2]; pH 5, 37° C.): 98%
- % test substance after 24 h [F(t = 24 h) × 100/F(t = 0 h)] ([2]; pH 5, 37° C.): 83%
- % test substance after 4 h [F(t = 4 h) × 100/F(t = 0 h)] ([2]; pH 7.4, 37° C.): 0%
- % test substance after 24 h [F(t = 24 h) × 100/F(t = 0 h)] ([2]; pH 7.4, 37° C.): 0%

Structure (SMILES): CC[C@H](C)[C@H](N)C(=O)N[C@@H](C)C(=O)OC[C@H](COc1ccc(-c2c(C#N)c(N)nc(SCc3coc(-c4ccc(Cl)cc4)n3)c2C#N)cc1)OC(=O)[C@H](C)NC(=O)[C@@H](N)[C@@H](C)CC [Example 2, (2S)-3-{4-[2-Amino-6-({[2-(4-chlorophenyl)-1,3-oxazol-4-yl]methyl}sulfanyl)-3,5-dicyanopyridin-4-yl]phenoxy}propane-1,2-diyl (2S,2′S)-bis(2-{[(2S,3S)-2-amino-3-methylpentanoyl]amino}propanoate)dihydrochloride]
- detectability of the test substance in plasma [3]: no longer detectable in plasma even at the first measurement point
- solubility thermodynamic at 24 h [1]: 670 µg/mL
- % test substance after 4 h [F(t = 4 h) × 100/F(t = 0 h)] ([2]; pH 4, 37° C.): 100%
- % test substance after 24 h [F(t = 24 h) × 100/F(t = 0 h)] ([2]; pH 4, 37° C.): 100%
- % test substance after 4 h [F(t = 4 h) × 100/F(t = 0 h)] ([2]; pH 7.4, 37° C.): 100%
- % test substance after 24 h [F(t = 24 h) × 100/F(t = 0 h)] ([2]; pH 7.4, 37° C.): 68%
